Assay [1] addresses T1, Adenosine receptor A3 (Homo sapiens, UniProt P0DMS8).
T1 sequence (P0DMS8 whole entry): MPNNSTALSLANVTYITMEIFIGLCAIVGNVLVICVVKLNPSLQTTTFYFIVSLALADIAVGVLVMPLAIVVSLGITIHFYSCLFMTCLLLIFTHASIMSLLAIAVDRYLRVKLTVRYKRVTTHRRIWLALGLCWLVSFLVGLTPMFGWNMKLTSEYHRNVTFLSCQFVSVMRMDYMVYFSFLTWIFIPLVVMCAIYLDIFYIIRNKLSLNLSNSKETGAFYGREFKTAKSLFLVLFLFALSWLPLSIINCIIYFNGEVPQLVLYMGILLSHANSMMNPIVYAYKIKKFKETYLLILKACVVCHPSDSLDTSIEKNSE

Assay [2] has as its target T2, Alpha-1A adrenergic receptor (Homo sapiens, UniProt P35348).
T2 sequence (P35348 whole entry): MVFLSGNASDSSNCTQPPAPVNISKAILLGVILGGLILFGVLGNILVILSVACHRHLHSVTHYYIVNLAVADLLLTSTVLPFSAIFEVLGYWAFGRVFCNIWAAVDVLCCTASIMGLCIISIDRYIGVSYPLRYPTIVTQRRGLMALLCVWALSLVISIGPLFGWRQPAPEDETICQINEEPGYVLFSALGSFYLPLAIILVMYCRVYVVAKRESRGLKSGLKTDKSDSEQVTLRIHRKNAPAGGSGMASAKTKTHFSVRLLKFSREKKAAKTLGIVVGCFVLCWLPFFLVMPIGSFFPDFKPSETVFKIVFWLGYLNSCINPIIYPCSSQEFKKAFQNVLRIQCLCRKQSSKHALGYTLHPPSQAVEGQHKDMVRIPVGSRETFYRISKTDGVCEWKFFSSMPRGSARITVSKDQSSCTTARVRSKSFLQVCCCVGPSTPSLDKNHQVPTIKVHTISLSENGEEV
It is filed as functional, cell-based.

The target of assay [3] is D(1A) dopamine receptor (Homo sapiens, UniProt P21728).
Assay [4] addresses D(3) dopamine receptor (Homo sapiens, UniProt P35462).
Assay [5] has as its target Prothrombin (Homo sapiens, UniProt P00734). The assay is classed as functional.
Assay [6] addresses Histamine H3 receptor (Homo sapiens, UniProt Q9Y5N1).
Assay [7] has as its target Voltage-gated inwardly rectifying potassium channel KCNH2 (Homo sapiens, UniProt Q12809). The assay is classed as functional. Conditions: read-out: AC50.
Assay [8] deals with T3, Amine oxidase [flavin-containing] A (Homo sapiens, UniProt P21397).
T3 sequence (P21397 whole entry): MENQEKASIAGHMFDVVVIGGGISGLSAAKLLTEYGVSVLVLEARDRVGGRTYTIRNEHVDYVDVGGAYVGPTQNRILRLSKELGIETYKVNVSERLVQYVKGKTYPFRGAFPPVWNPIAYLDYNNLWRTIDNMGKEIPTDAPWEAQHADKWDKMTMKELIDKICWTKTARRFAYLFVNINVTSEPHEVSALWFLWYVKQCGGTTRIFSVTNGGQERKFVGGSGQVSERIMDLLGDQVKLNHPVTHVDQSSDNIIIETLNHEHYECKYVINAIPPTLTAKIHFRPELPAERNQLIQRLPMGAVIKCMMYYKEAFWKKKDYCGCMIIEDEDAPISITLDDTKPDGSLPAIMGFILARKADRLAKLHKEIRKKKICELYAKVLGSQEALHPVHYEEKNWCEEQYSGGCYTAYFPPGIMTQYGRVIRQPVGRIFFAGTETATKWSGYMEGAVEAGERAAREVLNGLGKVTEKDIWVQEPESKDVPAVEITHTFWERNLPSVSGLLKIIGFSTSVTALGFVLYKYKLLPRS
It is filed as functional.

The target in assay [9] is T4, Progesterone receptor (Homo sapiens, UniProt P06401).
T4 sequence (P06401 whole entry): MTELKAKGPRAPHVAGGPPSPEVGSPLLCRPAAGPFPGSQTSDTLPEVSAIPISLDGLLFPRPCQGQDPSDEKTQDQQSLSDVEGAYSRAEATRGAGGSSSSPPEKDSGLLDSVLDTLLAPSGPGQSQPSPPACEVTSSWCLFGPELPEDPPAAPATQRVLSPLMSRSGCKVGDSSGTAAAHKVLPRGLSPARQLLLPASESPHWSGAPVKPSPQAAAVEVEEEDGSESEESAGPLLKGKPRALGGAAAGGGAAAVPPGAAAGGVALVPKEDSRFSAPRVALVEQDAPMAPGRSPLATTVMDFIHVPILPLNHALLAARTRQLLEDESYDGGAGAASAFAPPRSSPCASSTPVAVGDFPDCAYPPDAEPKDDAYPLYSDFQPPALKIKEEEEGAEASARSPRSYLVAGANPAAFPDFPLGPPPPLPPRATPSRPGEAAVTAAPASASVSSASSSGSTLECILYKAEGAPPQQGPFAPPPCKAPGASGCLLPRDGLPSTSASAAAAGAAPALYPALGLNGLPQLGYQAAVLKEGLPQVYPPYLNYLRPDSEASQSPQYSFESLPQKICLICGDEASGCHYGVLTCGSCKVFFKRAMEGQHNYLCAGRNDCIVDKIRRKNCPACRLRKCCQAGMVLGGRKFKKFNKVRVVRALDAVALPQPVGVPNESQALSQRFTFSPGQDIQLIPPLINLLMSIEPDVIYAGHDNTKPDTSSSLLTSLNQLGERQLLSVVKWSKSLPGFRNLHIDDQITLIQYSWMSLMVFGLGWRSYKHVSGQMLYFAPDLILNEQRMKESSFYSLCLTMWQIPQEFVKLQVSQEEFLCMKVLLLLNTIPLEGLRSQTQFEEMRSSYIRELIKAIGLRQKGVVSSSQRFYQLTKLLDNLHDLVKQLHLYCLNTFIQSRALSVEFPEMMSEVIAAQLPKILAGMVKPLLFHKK

The target of assay [10] is Sodium-dependent serotonin transporter (Homo sapiens, UniProt P31645).
Assay [11] deals with T5, Thromboxane A2 receptor (Homo sapiens, UniProt P21731).
T5 sequence (P21731 whole entry): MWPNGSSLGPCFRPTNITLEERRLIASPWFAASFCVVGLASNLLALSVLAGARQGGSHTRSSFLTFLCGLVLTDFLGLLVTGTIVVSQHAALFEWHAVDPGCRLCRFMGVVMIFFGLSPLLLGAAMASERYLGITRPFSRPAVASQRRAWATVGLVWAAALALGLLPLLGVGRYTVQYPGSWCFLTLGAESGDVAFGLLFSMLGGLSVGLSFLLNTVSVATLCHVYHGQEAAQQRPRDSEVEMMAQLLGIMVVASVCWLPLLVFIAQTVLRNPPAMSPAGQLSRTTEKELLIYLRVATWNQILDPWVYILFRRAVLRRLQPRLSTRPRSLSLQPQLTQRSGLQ
It is filed as functional, cell-based.
Note: assay procedure not described here.

Sequence of Voltage-gated inwardly rectifying potassium channel KCNH2 (Q12809 whole entry): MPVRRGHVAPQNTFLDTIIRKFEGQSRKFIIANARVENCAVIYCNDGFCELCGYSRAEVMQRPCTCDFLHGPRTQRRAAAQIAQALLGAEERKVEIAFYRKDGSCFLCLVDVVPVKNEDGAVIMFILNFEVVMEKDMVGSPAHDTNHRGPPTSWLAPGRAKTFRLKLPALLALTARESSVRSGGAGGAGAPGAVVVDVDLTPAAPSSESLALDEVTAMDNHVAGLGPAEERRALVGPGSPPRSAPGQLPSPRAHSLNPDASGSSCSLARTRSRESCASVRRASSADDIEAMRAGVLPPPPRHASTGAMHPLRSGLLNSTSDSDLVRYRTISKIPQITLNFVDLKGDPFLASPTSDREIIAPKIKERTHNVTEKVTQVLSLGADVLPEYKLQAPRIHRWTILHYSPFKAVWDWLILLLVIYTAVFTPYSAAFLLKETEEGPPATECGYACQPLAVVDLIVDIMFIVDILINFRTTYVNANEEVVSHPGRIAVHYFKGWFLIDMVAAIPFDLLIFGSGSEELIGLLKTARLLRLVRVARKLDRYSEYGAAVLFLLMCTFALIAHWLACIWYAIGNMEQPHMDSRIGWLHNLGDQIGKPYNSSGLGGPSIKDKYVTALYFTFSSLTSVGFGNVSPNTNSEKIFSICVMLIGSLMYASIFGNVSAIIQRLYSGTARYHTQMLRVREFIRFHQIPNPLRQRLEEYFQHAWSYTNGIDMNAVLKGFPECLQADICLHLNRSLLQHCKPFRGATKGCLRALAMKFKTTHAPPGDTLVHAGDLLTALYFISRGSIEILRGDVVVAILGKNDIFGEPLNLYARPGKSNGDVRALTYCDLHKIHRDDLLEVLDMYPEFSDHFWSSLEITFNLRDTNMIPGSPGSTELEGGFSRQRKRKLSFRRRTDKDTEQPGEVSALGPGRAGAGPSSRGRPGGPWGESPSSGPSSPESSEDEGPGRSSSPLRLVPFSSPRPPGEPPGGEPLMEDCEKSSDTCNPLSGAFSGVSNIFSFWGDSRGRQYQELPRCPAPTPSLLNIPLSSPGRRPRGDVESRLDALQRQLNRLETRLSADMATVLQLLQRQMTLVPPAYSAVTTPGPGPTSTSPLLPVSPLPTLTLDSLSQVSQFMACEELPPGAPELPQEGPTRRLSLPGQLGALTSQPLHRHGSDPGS
Sequence of Histamine H3 receptor (Q9Y5N1 whole entry): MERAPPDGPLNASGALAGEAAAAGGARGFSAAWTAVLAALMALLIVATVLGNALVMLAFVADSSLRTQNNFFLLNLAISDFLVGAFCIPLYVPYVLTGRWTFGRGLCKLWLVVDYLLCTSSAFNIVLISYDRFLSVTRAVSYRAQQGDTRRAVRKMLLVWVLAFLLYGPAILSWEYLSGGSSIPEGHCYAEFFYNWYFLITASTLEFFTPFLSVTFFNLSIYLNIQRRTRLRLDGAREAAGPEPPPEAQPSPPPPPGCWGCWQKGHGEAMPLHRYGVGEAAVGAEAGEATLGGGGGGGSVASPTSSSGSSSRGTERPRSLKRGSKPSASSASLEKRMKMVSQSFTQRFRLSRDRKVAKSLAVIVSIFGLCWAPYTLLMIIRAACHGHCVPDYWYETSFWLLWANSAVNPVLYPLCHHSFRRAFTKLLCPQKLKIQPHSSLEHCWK
Sequence of Sodium-dependent serotonin transporter (P31645 whole entry): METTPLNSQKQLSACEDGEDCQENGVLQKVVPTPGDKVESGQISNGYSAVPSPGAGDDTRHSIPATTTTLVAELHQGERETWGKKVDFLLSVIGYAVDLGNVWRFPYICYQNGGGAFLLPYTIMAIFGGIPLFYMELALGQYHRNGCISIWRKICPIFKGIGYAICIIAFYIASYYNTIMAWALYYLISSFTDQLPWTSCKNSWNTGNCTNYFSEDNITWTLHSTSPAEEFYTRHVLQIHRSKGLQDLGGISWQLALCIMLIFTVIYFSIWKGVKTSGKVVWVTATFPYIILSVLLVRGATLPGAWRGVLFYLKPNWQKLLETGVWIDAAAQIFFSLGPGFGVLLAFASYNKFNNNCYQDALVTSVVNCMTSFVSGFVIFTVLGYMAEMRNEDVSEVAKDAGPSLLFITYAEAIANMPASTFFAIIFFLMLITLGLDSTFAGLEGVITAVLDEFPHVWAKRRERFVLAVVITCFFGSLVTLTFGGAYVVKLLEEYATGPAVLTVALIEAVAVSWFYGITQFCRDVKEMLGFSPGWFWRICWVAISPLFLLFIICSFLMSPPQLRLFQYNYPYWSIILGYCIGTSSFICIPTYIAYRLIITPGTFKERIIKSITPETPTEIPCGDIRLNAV
Sequence of D(3) dopamine receptor (P35462 whole entry): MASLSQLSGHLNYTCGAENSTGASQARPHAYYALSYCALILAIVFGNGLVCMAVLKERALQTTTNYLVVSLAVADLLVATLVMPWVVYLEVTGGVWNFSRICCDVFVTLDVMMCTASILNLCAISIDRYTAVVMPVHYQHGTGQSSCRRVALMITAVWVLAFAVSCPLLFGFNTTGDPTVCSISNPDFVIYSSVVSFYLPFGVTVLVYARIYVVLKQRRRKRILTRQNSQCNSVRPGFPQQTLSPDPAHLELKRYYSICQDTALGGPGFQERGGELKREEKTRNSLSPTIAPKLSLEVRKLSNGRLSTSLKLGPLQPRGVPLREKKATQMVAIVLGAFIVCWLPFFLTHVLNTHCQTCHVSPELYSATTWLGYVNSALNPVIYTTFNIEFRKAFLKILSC
Sequence of D(1A) dopamine receptor (P21728 whole entry): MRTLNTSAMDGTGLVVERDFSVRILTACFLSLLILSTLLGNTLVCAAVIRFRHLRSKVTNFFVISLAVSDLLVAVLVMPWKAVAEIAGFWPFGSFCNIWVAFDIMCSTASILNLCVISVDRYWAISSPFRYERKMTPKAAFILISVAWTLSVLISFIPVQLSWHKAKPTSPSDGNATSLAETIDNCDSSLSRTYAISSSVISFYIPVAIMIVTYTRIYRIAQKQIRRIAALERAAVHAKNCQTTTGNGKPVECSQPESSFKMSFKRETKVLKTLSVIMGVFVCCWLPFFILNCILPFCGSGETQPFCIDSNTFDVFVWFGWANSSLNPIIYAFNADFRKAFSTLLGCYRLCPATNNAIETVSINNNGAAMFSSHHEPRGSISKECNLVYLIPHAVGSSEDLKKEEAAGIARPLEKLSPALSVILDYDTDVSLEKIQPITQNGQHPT

One may read the AC50 as the midpoint of the concentration-response curve, whichever way the signal moves. For the compound `Nc1nc(-n2cc(C(=O)O)c(=O)c3cc(F)c(N4CC(O)C4)c(Cl)c32)c(F)cc1F` [DELAFLOXACIN], the concentration at half-maximal activity (AC50) was over 3 µM in [1]; over 30 µM in assay [2]; over 30 µM in [3]; over 30 µM in assay [4]; over 30 µM in assay [5]; over 30 µM in assay [6]. The AC50 in assay [7], in assay [8], in [9], in [10] and in assay [11] was over 30 µM in each case.
As for `CCCC[N+]1(C)[C@@H]2C[C@@H](OC(=O)[C@H](CO)c3ccccc3)C[C@H]1[C@@H]1O[C@@H]12` (stereo partly specified) [BUTYLSCOPOLAMINE], the AC50 in [1], in assay [2], in [3], in assay [4], in assay [5] and in assay [6] was over 30 µM each time. Moreover, the AC50 is 2.8 µM in [7]; over 30 µM in assay [8]; over 30 µM in assay [9]; over 30 µM in assay [10]; over 30 µM in assay [11].
Turning to `O=C1NCC2(CCN(CCc3ccccc3)CC2)O1` [FENSPIRIDE], the AC50 in assay [1] is over 30 µM; in assay [2], over 30 µM; in assay [3], 20.8 µM; in assay [4], over 30 µM; in [5], over 30 µM; in [6] it was over 30 µM. The AC50 in assay [7], in [8], in [9], in [10] and in [11] was over 30 µM in each case.
As for `CCN(CC)CCNc1ccc(C)c2sc3ccccc3c(=O)c12` [LUCANTHONE], the AC50 was 12.4 µM in assay [1]; 17.9 µM in [2]; 6.04 µM in assay [3]; 0.91 µM in assay [4]; over 30 µM in assay [5]; 10.5 µM in assay [6]. The AC50 is 1.3 µM in assay [7]; 16.3 µM in assay [8]; over 30 µM in assay [9]; 6.25 µM in [10]; over 30 µM in assay [11].
Consider `CCOC(=O)C(c1c(O)c2ccccc2oc1=O)c1c(O)c2ccccc2oc1=O` [ETHYL BISCOUMACETATE], for which the AC50 in assay [1] was 17.3 µM; in [2], over 30 µM; in assay [3] it was over 30 µM; in assay [4], over 30 µM; in assay [5] it was over 30 µM; in [6], over 30 µM. Moreover, the AC50 in assay [7], in [8], in assay [9], in assay [10] and in assay [11] was over 30 µM throughout.
Turning to `C1N2CN3CN1CN(C2)C3` [METHENAMINE], the AC50 in [1], in assay [2], in [3], in [4], in assay [5] and in assay [6] was over 30 µM throughout. The AC50 in assay [7], in assay [8], in assay [9], in [10] and in assay [11] was over 30 µM throughout.
Consider `CN1CCC2=C(C1)c1ccccc1Cc1ccccc12` [SETIPTILINE], for which the AC50 in [1] was over 30 µM; in assay [2] it was over 30 µM; in assay [3] it was 0.0882 µM; in assay [4] it was 0.543 µM; in [5], over 30 µM; in assay [6] it was over 30 µM. Further, the AC50 is 13 µM in assay [7]; over 30 µM in assay [8]; over 30 µM in [9]; 8.15 µM in assay [10]; over 30 µM in assay [11].
Consider `O=C(NC1CCN(CCCCC2(C(=O)NCC(F)(F)F)c3ccccc3-c3ccccc32)CC1)c1ccccc1-c1ccc(C(F)(F)F)cc1` [LOMITAPIDE], for which the AC50 was 4.4 µM in assay [1]; over 30 µM in [2]; 1.49 µM in assay [3]; 1.76 µM in [4]; over 30 µM in assay [5]; over 30 µM in assay [6]. Moreover, the AC50 in assay [7] was 0.86 µM; in assay [8], over 30 µM; in assay [9] it was over 30 µM; in assay [10], over 30 µM; in assay [11], 8.46 µM.
Turning to `COc1ccc(CCC(C)NCC(O)c2ccc(O)c([S+](C)[O-])c2)cc1` (stereo unspecified) [SULFINALOL], the AC50 in [1], in assay [2], in assay [3], in [4], in assay [5] and in assay [6] was over 30 µM throughout. For the same compound, the AC50 is over 30 µM in assay [7]; over 30 µM in [8]; over 30 µM in assay [9]; 0.866 µM in assay [10]; over 30 µM in [11].
Consider `O=C1CN=C(c2ccccc2)c2c(sc3c2CCCC3)N1` [BENTAZEPAM], for which the AC50 was 14.3 µM in assay [1]; over 30 µM in assay [2]; over 30 µM in assay [3]; over 30 µM in assay [4]; over 30 µM in assay [5]; over 30 µM in [6]. The AC50 is over 30 µM in assay [7]; over 30 µM in assay [8]; 14.8 µM in assay [9]; over 30 µM in assay [10]; over 30 µM in assay [11].
For `O=C(O)CCCN1CCC(O[C@@H](c2ccc(Cl)cc2)c2ccccn2)CC1` [BEPOTASTINE], the AC50 in assay [1], in assay [2], in assay [3], in [4], in assay [5] and in assay [6] was over 30 µM each time. Also, the AC50 in assay [7], in assay [8], in [9], in assay [10] and in [11] was over 30 µM each time.
